From patent publication US20240174680A1, “CDK2 INHIBITORS AND METHODS OF USING THE SAME” (Cedilla Therapeutics, Inc., priority 2021, published 2024)

molecular target: CDK2/Cyclin E1 (Homo sapiens, UniProt P24941); test: CDK2/Cyclin E1 Caliper LabChip EZ Reader mobility shift assay; type: biochemical; design: purchased Eurofins 14-475; details: read-out: Caliper Assay (CDK2/CCNE1): IC50
In short: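 Substrate-to-product conversion of fluorescent peptide (1.5 μM final) read by capillary electrophoresis after 100 min reaction, EDTA-quenched. Enzyme (2.5 nM final) and ATP (100 μM final) were preincubated 30 min with inhibitor dilutions first. % activity vs concentration fitted four-parameter for IC50.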

IC50 | Compound
1000 to 10000 nM | CNC(=O)C(NC(=O)[C@@H]1CN(C(=O)c2cncs2)CC12CN(C(=O)[C@H]1CC1(C)C)C2)c1cccc(N2CCOCC2)n1 (stereo partly shown) [I-422]
10 to 100 nM | COC[C@H]1CCCN(C(=O)[C@@H](NC(=O)[C@@H]2CN(C(=O)c3cncs3)CC23CN(C(=O)[C@H]2CC2(C)C)C3)[C@@H](C)OC[C@H]2CC[C@@H](OC)CC2)C1 [I-408]
> 10000 nM | Cc1nc(C)c(C(=O)N2C[C@@H](C(=O)NC(c3cccc(C4CCOCC4)n3)C(C)(C)O)C3(C2)CN(C(=O)[C@H]2CC2(C)C)C3)s1 (stereo partly shown) [I-437]
≤ 10 nM | C[C@@H](OCC1CCCCC1)[C@@H](COC1CCOCC1)NC(=O)[C@@H]1CN(C(=O)c2cncs2)CC12CN(C(=O)[C@H]1CC1(C)C)C2 [I-331]
> 10000 nM | CNC(=O)[C@@H](NC(=O)[C@H]1CN(C(=O)c2cnn(Cc3ccccc3)c2)CC12CN(C(=O)Cc1ccccc1)C2)[C@@H](C)OCc1ccccc1 [I-25B]
100 to 1000 nM | CNC(=O)[C@@H](NC(=O)[C@H]1CN(C(=O)c2cnn(Cc3ccc(F)cc3)c2)CC12CN(C(=O)[C@H]1CC1(C)C)C2)[C@@H](C)OCc1ccc(F)cc1 [I-136B]
≤ 10 nM | CCOC(=O)[C@@H]1CCCN(C(=O)[C@@H](NC(=O)[C@@H]2CN(C(=O)c3cnn(Cc4ccccc4)c3)CC23CN(C(=O)[C@H]2CC2(C)C)C3)[C@@H](C)OCC2CCCCC2)C1 [I-484]
≤ 10 nM | COC[C@H]1CCCN(C(=O)[C@@H](NC(=O)[C@@H]2CN(C(=O)c3cncs3)CC23CN(C(=O)[C@H]2CC2(C)C)C3)[C@@H](C)OCC2CCC3(CCC3)CC2)C1 [I-390]
10 to 100 nM | CNC(=O)[C@@H](NC(=O)[C@@H]1CN(C(=O)c2scnc2Cl)CC12CN(C(=O)[C@H]1CC1(C)C)C2)[C@@H](C)OCC1CCCCC1 [I-157A]
1000 to 10000 nM | CC1(C)C[C@@H]1C(=O)N1CC2(CN(C(=O)c3cnn(Cc4ccccc4)c3)CC2C(=O)Nc2ncc(-c3ccccc3)o2)C1 (stereo partly shown) [I-93]
100 to 1000 nM | C[C@@H](OCC1CCCCC1)[C@H](NC(=O)[C@H]1CN(C(=O)c2cnn(Cc3ccccc3)c2)CC12CN(C(=O)[C@H]1CC1(C)C)C2)C(=O)N1CCC(F)(F)CC1 [I-149B]
1000 to 10000 nM | CNC(=O)[C@@H](NC(=O)[C@H]1CN(C(=O)c2cnn(Cc3ccccc3)c2)CC12CN(C(=O)[C@H]1CC1(C)C)C2)[C@@H](C)OCC1(C(F)(F)F)CC1 [I-205B]
> 10000 nM | CC1(C)C[C@@H]1C(=O)N1CC2(CN(C(=O)c3cnn(Cc4ccccc4)c3)C[C@@H]2C(=O)N2CCCC(Cc3ccccc3)C2)C1 (stereo partly shown) [I-91B]
1000 to 10000 nM | C[C@@H](OCC1CCCCC1)[C@H](NC(=O)[C@H]1CN(C(=O)c2cnn(Cc3ccccc3)c2)CC12CN(C(=O)[C@H]1CC1(C)C)C2)C(=O)N1CCOCC1 [I-152B]
> 10000 nM | CNC(=O)[C@H](CO)NC(=O)C1CN(C(=O)c2cnn(Cc3ccccc3)c2)CC12CN(C(=O)[C@H]1CC1(C)C)C2 (stereo partly shown) [I-260]
100 to 1000 nM | CNC(=O)[C@H](CSCc1ccccc1)NC(=O)[C@@H]1CN(C(=O)c2cnn(Cc3ccccc3)c2)CC12CN(C(=O)[C@H]1CC1(C)C)C2 [I-225]
1000 to 10000 nM | C[C@H](NC(=O)[C@@H]1CN(C(=O)c2cnn(Cc3ccccc3)c2)CC12CN(C(=O)[C@H]1CC1(C)C)C2)c1cccc(F)c1 [I-127A]
10 to 100 nM | CNC(=O)[C@@H](NC(=O)[C@@H]1CN(C(=O)c2cnc(COC)s2)CC12CN(C(=O)[C@H]1CC1(C)C)C2)[C@@H](C)OCC1CCCCC1 [I-145A]
100 to 1000 nM | C[C@@H](OCc1ccccc1)[C@H](NC(=O)C1CN(C(=O)c2cnn(Cc3ccccc3)c2)CC12CN(C(=O)[C@H]1CC1(C)C)C2)C(=O)NCCC(=O)O (stereo partly shown) [I-29]
> 10000 nM | COC(=O)C1(NC(=O)[C@@H]2CN(C(=O)c3cnn(Cc4ccccc4)c3)CC23CN(C(=O)[C@H]2CC2(C)C)C3)COC1 [I-142B]
> 10000 nM | CNC(=O)[C@@H](NC(=O)[C@H]1CN(C(=O)c2cnn(Cc3ccccc3)c2)CC12CN(C(=O)C1(CC3CC3)CC1)C2)[C@@H](C)OCc1ccccc1 [I-116B]
≤ 10 nM | C[C@@H](OCC1CCCCC1)[C@H](NC(=O)[C@@H]1CN(C(=O)c2cnn(Cc3ccccc3)c2)CC12CN(C(=O)[C@H]1CC1(C)C)C2)C(N)=O [I-200]
1000 to 10000 nM | CNC(=O)[C@@H](NC(=O)[C@@H]1CN(C(=O)c2cnn(Cc3ccccc3)c2)CC12CN(C(=O)C(C)(C)C#N)C2)[C@@H](C)OCc1ccccc1 [I-76A]
> 10000 nM | CC1(C)C[C@@H]1C(=O)N1CC2(CN(C(=O)c3cnn(Cc4ccccc4)c3)C[C@H]2C(=O)N2CCC[C@@H](OCC3CCCCC3)C2)C1 [I-254]
> 10000 nM | CC1(C)C[C@@H]1C(=O)N1CC2(CN(C(=O)c3cnn(Cc4ccccc4)c3)C[C@H]2C(=O)N2CCO[C@@H](Cc3ccccc3)C2)C1 [I-210]
1000 to 10000 nM | CNC(=O)[C@@H](NC(=O)C1(C)CN(C(=O)c2cnn(Cc3ccccc3)c2)CC12CN(C(=O)[C@H]1CC1(C)C)C2)[C@@H](C)OCc1ccccc1 (stereo partly drawn) [I-498, 6-(1-benzyl-1H-pyrazole-4-carbonyl)-N-((2S,3R)-3-(benzyloxy)-1-(methylamino)-1-oxobutan-2-yl)-2-((S)-2,2-dimethylcyclopropane-1-carbonyl)-8-methyl-2,6-diazaspiro[3.4]octane-8-carboxamide]

IC50 | Compound
1000 to 10000 nM | CNC(=O)[C@@H](NC(=O)[C@H]1CN(C(=O)c2cnc(COC)s2)CC12CN(C(=O)[C@H]1CC1(C)C)C2)[C@@H](C)OCC1CCCCC1 [I-145B]
> 10000 nM | CNC(=O)[C@@H](NC(=O)[C@@H]1CN(C(=O)c2nccs2)CC12CN(C(=O)[C@H]1CC1(C)C)C2)[C@@H](C)OCC1CCCCC1 [I-169]
10 to 100 nM | C[C@@H](OCc1ccccc1)[C@H](NC(=O)C1CN(C(=O)c2cnn(Cc3ccccc3)c2)CC12CN(C(=O)[C@H]1CC1(C)C)C2)C(=O)N1CCCC(CO)C1 (stereo partly shown) [I-98]
≤ 10 nM | C[C@@H](OCC1CCCCC1)[C@H](NC(=O)[C@@H]1CN(C(=O)c2cnn(Cc3ccccc3)c2)CC12CN(C(=O)[C@H]1CC1(C)C)C2)C(=O)N1CCC(n2cccn2)CC1 [I-439]
100 to 1000 nM | CNC(=O)[C@@H](NC(=O)[C@H]1CN(C(=O)c2sc(Cl)nc2C)CC12CN(C(=O)[C@H]1CC1(C)C)C2)[C@@H](C)OCC1CCCCC1 [I-208B]
≤ 10 nM | C[C@@H](OCC12CCC(CC1)OC2)[C@H](NC(=O)[C@@H]1CN(C(=O)c2cncs2)CC12CN(C(=O)[C@H]1CC1(C)C)C2)C(=O)N1CCC2(CC1)COC2 [I-336]
> 10000 nM | CNC(=O)[C@@H](NC(=O)[C@H]1CN(C(=O)c2cnn(Cc3ccccc3)c2)CC12CN(C(=O)CC(C)(C)C)C2)[C@@H](C)OCc1ccccc1 [I-62B]
> 10000 nM | CC1(C)C[C@@H]1C(=O)N1CC2(CN(C(=O)c3cnn(Cc4ccccc4)c3)C[C@H]2C(=O)NCc2cccnn2)C1 [I-359]
≤ 10 nM | CNC(=O)[C@@H](NC(=O)[C@@H]1CN(C(=O)c2cnn(Cc3ccccc3)c2)CC12CN(C(=O)[C@H]1CC1(C)C)C2)[C@@H](C)OCCC1CCCCC1 [I-125A]
> 10000 nM | CNC(=O)[C@@H](NC(=O)[C@H]1CN(C(=O)c2cnc(C(F)(F)F)s2)CC12CN(C(=O)[C@H]1CC1(C)C)C2)[C@@H](C)OCC1CCCCC1 [I-161B]
10 to 100 nM | C[C@@H]1C[C@H](C)CN(C(=O)[C@@H](NC(=O)C2CN(C(=O)c3cnn(Cc4ccccc4)c3)CC23CN(C(=O)[C@H]2CC2(C)C)C3)[C@@H](C)OCC2CCCCC2)C1 (stereo partly shown) [I-104]
100 to 1000 nM | CNC(=O)[C@@H](NC(=O)[C@H]1CN(C(=O)c2cnn(Cc3ccccc3)c2)CC12CN(C(=O)[C@H]1CC1(C)C)C2)[C@@H](C)OCC1CCCCC1 [I-123B]
1000 to 10000 nM | Cc1ccc(CNC(=O)[C@@H]2CN(C(=O)c3cnn(Cc4ccccc4)c3)CC23CN(C(=O)[C@H]2CC2(C)C)C3)nc1 [I-365]
1000 to 10000 nM | COC[C@H]1CCCN(C(=O)[C@H](C)NC(=O)[C@@H]2CN(C(=O)c3cncs3)CC23CN(C(=O)[C@H]2CC2(C)C)C3)C1 [I-325]
> 10000 nM | CNC(=O)[C@@H](NC(=O)[C@@H]1CN(C(=O)c2c[nH]c3ccccc23)CC12CN(C(=O)[C@H]1CC1(C)C)C2)[C@@H](C)OCc1ccccc1 [I-72A]
> 10000 nM | CNC(=O)[C@@H](NC(=O)[C@H]1CN(C(=O)c2c[nH]c3ccccc23)CC12CN(C(=O)[C@H]1CC1(C)C)C2)[C@@H](C)OCc1ccccc1 [I-72B]
≤ 10 nM | COC[C@H]1CCCN(C(=O)[C@@H](NC(=O)[C@@H]2CN(C(=O)c3cncs3)CC23CN(C(=O)[C@H]2CC2(C)C)C3)[C@@H](C)O[C@@H](C)C2CCCCC2)C1 [I-467]
> 10000 nM | CNC(=O)[C@@H](NC(=O)[C@H]1CN(C(=O)c2cnn(Cc3ccccc3)c2)CC12CN(C(=O)C1(CCF)CC1)C2)[C@@H](C)OCc1ccccc1 [I-117B]
10 to 100 nM | C[C@@H](OCC1CCOCC1)[C@H](NC(=O)[C@@H]1CN(C(=O)c2cn[nH]c2)CC12CN(C(=O)[C@H]1CC1(C)C)C2)C(=O)N1CCC(F)(F)CC1 [I-297]
> 10000 nM | CC1(C)C[C@@H]1C(=O)N1CC2(CN(C(=O)c3cnn(Cc4ccccc4)c3)C[C@H]2C(=O)N[C@@H]2CC[C@@H]2O)C1 [I-201B]
1000 to 10000 nM | CNC(=O)[C@@H](NC(=O)[C@H]1CN(C(=O)c2cn[nH]c2)CC12CN(C(=O)[C@H]1CC1(C)C)C2)[C@@H](C)OCC1CCCCC1 [I-66B]
1000 to 10000 nM | CNC(=O)[C@@H](NC(=O)[C@]1(C)CN(C(=O)c2cnn(Cc3ccccc3)c2)CC12CN(C(=O)[C@H]1CC1(C)C)C2)[C@@H](C)OCC1CCCCC1 [I-499A]
1000 to 10000 nM | CO[C@H](C)[C@H](NC(=O)[C@@H]1CN(C(=O)c2cnn(Cc3ccccc3)c2)CC12CN(C(=O)[C@H]1CC1(C)C)C2)C(=O)N1CCC(CN)CC1 [I-306]
100 to 1000 nM | CNC(=O)[C@@H](NC(=O)[C@H]1CN(C(=O)c2cnn(Cc3ccccc3)c2)CC12CN(C(=O)[C@H]1CC1(C)C)C2)[C@@H](C)OCC1CCCCCC1 [I-166B]
1000 to 10000 nM | CNC(=O)[C@@H](NC(=O)[C@@H]1CN(C(=O)c2cnn(CC3CCN(C)CC3)c2)CC12CN(C(=O)[C@H]1CC1(C)C)C2)[C@@H](C)OCc1ccccc1 [I-23A]
1000 to 10000 nM | CC1(C)C[C@@H]1C(=O)N1CC2(CN(C(=O)c3cnn(Cc4ccccc4)c3)C[C@H]2C(=O)N[C@@H]2CCN(c3ccccc3)C2)C1 [I-207]
